{"source": "patent US20110039721A1", "about": "“METHOD FOR PREDICTION ABOUT CARCINOGENICITY OF SUBSTANCE IN RODENT” (Chemicals Evaluation and Research Institute, priority 2007, published 2011)", "key": {"rodent": {"test_system": "rodent", "conditions": "in vivo; cited from earlier work"}, "liver": {"test_system": "liver", "conditions": "in vivo; cited from earlier work"}, "[1]": {"test_system": "mRNA expressed from the genes (A) to (D) in rat liver", "assay": "Behavior of genes (mRNA expression level, oligo-DNA microarray) in rat liver after 28-day oral administration", "format": "in vivo", "how_it_was_run": "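Rat liver RNA after 28 days of daily gavage dosing (male F344, 5 weeks old, four per group). A change reaching 1.5-fold, or 1/1.5, against solvent control scores as significant; opposite direction versus another carcinogen scores as not significant.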"}, "[2]": {"conditions": "(C), Unigene Rn.120914, defined direction +, rat liver, oral once daily 28 days"}}, "data": [{"smiles": "c1ccc2ncccc2c1", "note": "[TS006, Quinoline]", "values": [{"measurement": "Carcinogenicity", "setting": "rodent", "result": "C+"}, {"measurement": "Liver carcinogenicity", "setting": "liver", "result": "Cr+"}, {"measurement": "Behavior of gene caused by administration of chemical substance, Gene No. 4846", "setting": "[1]; (A), Unigene Rn.144554, defined direction +, rat liver, oral once daily 28 days", "result": "+"}, {"measurement": "Behavior of gene caused by administration of chemical substance, Gene No. 4218", "setting": "[1]; (A), Unigene Rn.167075, defined direction +, rat liver, oral once daily 28 days, significant = 1.5 times or more or 1/1.5 or less of control", "result": "−"}, {"measurement": "Behavior of gene caused by administration of chemical substance, Gene No. 2026", "setting": "[1]; (A), Unigene Rn.167075, defined direction −, rat liver, oral once daily 28 days", "result": "+"}, {"measurement": "Behavior of gene caused by administration of chemical substance, Gene No. 6182", "setting": "[1]; (A), Unigene Rn.5834, defined direction +, rat liver, oral once daily 28 days", "result": "−"}, {"measurement": "Behavior of gene caused by administration of chemical substance, Gene No. 5600", "setting": "[1]; (A), Unigene Rn.9836, defined direction +, rat liver, oral once daily 28 days", "result": "−"}, {"measurement": "Behavior of gene caused by administration of chemical substance, Gene No. 1494", "setting": "[1]; (B), Unigene Rn.1430, defined direction −, rat liver, oral once daily 28 days", "result": "+"}, {"measurement": "Behavior of gene caused by administration of chemical substance, Gene No. 2045", "setting": "[1]; (B), Unigene Rn.19329, defined direction +, rat liver, oral once daily 28 days", "result": "−"}, {"measurement": "Behavior of gene caused by administration of chemical substance, Gene No. 2203", "setting": "[1]; (B), Unigene Rn.21240, defined direction +, rat liver, oral once daily 28 days", "result": "−"}, {"measurement": "Behavior of gene caused by administration of chemical substance, Gene No. 533", "setting": "[1]; (C), Unigene Rn.106184, defined direction +, rat liver, oral once daily 28 days", "result": "−"}, {"measurement": "Behavior of gene caused by administration of chemical substance, Gene No. 725", "setting": "[1]; (C), Unigene Rn.108075, defined direction −, rat liver, oral once daily 28 days", "result": "−"}, {"measurement": "Behavior of gene caused by administration of chemical substance, Gene No. 1163", "setting": "[1]; (C), Unigene Rn.11766, defined direction +, rat liver, oral once daily 28 days", "result": "−"}, {"measurement": "Behavior of gene caused by administration of chemical substance, Gene No. 4973", "setting": "[1]; (C), Unigene Rn.118529, defined direction −, rat liver, oral once daily 28 days", "result": "−"}, {"measurement": "Behavior of gene caused by administration of chemical substance, Gene No. 4095", "setting": "[1]; (C), Unigene Rn.119024, defined direction −, rat liver, oral once daily 28 days", "result": "−"}, {"measurement": "Behavior of gene caused by administration of chemical substance, Gene No. 1334", "setting": "[1]; [2]", "result": "−"}, {"measurement": "Behavior of gene caused by administration of chemical substance, Gene No. 6620", "setting": "[1]; [2]", "result": "−"}, {"measurement": "Behavior of gene caused by administration of chemical substance, Gene No. 6303", "setting": "[1]; (C), Unigene Rn.123063, defined direction −, rat liver, oral once daily 28 days", "result": "−"}, {"measurement": "Behavior of gene caused by administration of chemical substance, Gene No. 5878", "setting": "[1]; (C), Unigene Rn.143213, defined direction −, rat liver, oral once daily 28 days", "result": "−"}, {"measurement": "Behavior of gene caused by administration of chemical substance, Gene No. 1131", "setting": "[1]; (C), Unigene Rn.144946, defined direction −, rat liver, oral once daily 28 days", "result": "−"}, {"measurement": "Behavior of gene caused by administration of chemical substance, Gene No. 1562", "setting": "[1]; (C), Unigene Rn.14744, defined direction −, rat liver, oral once daily 28 days", "result": "−"}, {"measurement": "Behavior of gene caused by administration of chemical substance, Gene No. 1741", "setting": "[1]; (C), Unigene Rn.1647, defined direction −, rat liver, oral once daily 28 days", "result": "−"}, {"measurement": "Behavior of gene caused by administration of chemical substance, Gene No. 893", "setting": "[1]; (C), Unigene Rn.164817, defined direction +, rat liver, oral once daily 28 days", "result": "−"}, {"measurement": "Behavior of gene caused by administration of chemical substance, Gene No. 6026", "setting": "[1]; (C), Unigene Rn.167685, defined direction −, rat liver, oral once daily 28 days", "result": "−"}, {"measurement": "Behavior of gene caused by administration of chemical substance, Gene No. 154", "setting": "[1]; (C), Unigene Rn.185941, defined direction −, rat liver, oral once daily 28 days", "result": "−"}, {"measurement": "Behavior of gene caused by administration of chemical substance, Gene No. 1993", "setting": "[1]; (C), Unigene Rn.18728, defined direction −, rat liver, oral once daily 28 days", "result": "−"}, {"measurement": "Behavior of gene caused by administration of chemical substance, Gene No. 813", "setting": "[1]; (C), Unigene Rn.201760, defined direction +, rat liver, oral once daily 28 days", "result": "+"}, {"measurement": "Behavior of gene caused by administration of chemical substance, Gene No. 2494", "setting": "[1]; (C), Unigene Rn.23969, defined direction +, rat liver, oral once daily 28 days", "result": "−"}, {"measurement": "Behavior of gene caused by administration of chemical substance, Gene No. 2546", "setting": "[1]; (C), Unigene Rn.24561, defined direction −, rat liver, oral once daily 28 days", "result": "−"}, {"measurement": "Behavior of gene caused by administration of chemical substance, Gene No. 3776", "setting": "[1]; (C), Unigene Rn.43232, defined direction −, rat liver, oral once daily 28 days", "result": "−"}, {"measurement": "Behavior of gene caused by administration of chemical substance, Gene No. 3929", "setting": "[1]; (C), Unigene Rn.4620, defined direction +, rat liver, oral once daily 28 days", "result": "−"}, {"measurement": "Behavior of gene caused by administration of chemical substance, Gene No. 1119", "setting": "[1]; (C), Unigene Rn.9757, defined direction +, rat liver, oral once daily 28 days", "result": "−"}, {"measurement": "Behavior of gene caused by administration of chemical substance, Gene No. 6742", "setting": "[1]; (C), Unigene Rn.9779, defined direction +, rat liver, oral once daily 28 days", "result": "−"}, {"measurement": "Behavior of gene caused by administration of chemical substance, Gene No. 5634", "setting": "[1]; (C), Unigene Rn.9862, defined direction −, rat liver, oral once daily 28 days", "result": "−"}, {"measurement": "Behavior of gene caused by administration of chemical substance, Gene No. 5726", "setting": "[1]; (D), Unigene Rn.9939, defined direction −, rat liver, oral once daily 28 days", "result": "−"}]}, {"smiles": "Oc1cccc2cccnc12", "note": "[TS007, 8-Hydroxyquinoline]", "values": [{"measurement": "Carcinogenicity", "setting": "rodent", "result": "C−"}, {"measurement": "Liver carcinogenicity", "setting": "liver", "result": "Cr−"}, {"measurement": "Behavior of gene caused by administration of chemical substance, Gene No. 154", "setting": "[1]; rat, in vivo", "result": "−"}, {"measurement": "Behavior of gene caused by administration of chemical substance, Gene No. 533", "setting": "[1]; rat, in vivo", "result": "−"}, {"measurement": "Behavior of gene caused by administration of chemical substance, Gene No. 725", "setting": "[1]; rat, in vivo", "result": "−"}, {"measurement": "Behavior of gene caused by administration of chemical substance, Gene No. 813", "setting": "[1]; rat, in vivo", "result": "−"}, {"measurement": "Behavior of gene caused by administration of chemical substance, Gene No. 893", "setting": "[1]; rat, in vivo", "result": "−"}, {"measurement": "Behavior of gene caused by administration of chemical substance, Gene No. 1119", "setting": "[1]; rat, in vivo", "result": "−"}, {"measurement": "Behavior of gene caused by administration of chemical substance, Gene No. 1131", "setting": "[1]; rat, in vivo", "result": "−"}, {"measurement": "Behavior of gene caused by administration of chemical substance, Gene No. 1163", "setting": "[1]; rat, in vivo", "result": "−"}, {"measurement": "Behavior of gene caused by administration of chemical substance, Gene No. 1334", "setting": "[1]; rat, in vivo", "result": "−"}, {"measurement": "Behavior of gene caused by administration of chemical substance, Gene No. 1494", "setting": "[1]; rat, in vivo", "result": "−"}, {"measurement": "Behavior of gene caused by administration of chemical substance, Gene No. 1562", "setting": "[1]; rat, in vivo", "result": "−"}, {"measurement": "Behavior of gene caused by administration of chemical substance, Gene No. 1741", "setting": "[1]; rat, in vivo", "result": "−"}, {"measurement": "Behavior of gene caused by administration of chemical substance, Gene No. 1993", "setting": "[1]; rat, in vivo", "result": "−"}, {"measurement": "Behavior of gene caused by administration of chemical substance, Gene No. 2026", "setting": "[1]; rat, in vivo", "result": "−"}, {"measurement": "Behavior of gene caused by administration of chemical substance, Gene No. 2045", "setting": "[1]; rat, in vivo", "result": "−"}, {"measurement": "Behavior of gene caused by administration of chemical substance, Gene No. 2203", "setting": "[1]; rat, in vivo", "result": "−"}, {"measurement": "Behavior of gene caused by administration of chemical substance, Gene No. 2494", "setting": "[1]; rat, in vivo", "result": "−"}, {"measurement": "Behavior of gene caused by administration of chemical substance, Gene No. 2546", "setting": "[1]; rat, in vivo", "result": "−"}, {"measurement": "Behavior of gene caused by administration of chemical substance, Gene No. 3776", "setting": "[1]; rat, in vivo", "result": "−"}, {"measurement": "Behavior of gene caused by administration of chemical substance, Gene No. 3929", "setting": "[1]; rat, in vivo", "result": "−"}, {"measurement": "Behavior of gene caused by administration of chemical substance, Gene No. 4095", "setting": "[1]; rat, in vivo", "result": "−"}, {"measurement": "Behavior of gene caused by administration of chemical substance, Gene No. 4218", "setting": "[1]; rat, in vivo", "result": "−"}, {"measurement": "Behavior of gene caused by administration of chemical substance, Gene No. 4846", "setting": "[1]; rat, in vivo", "result": "−"}, {"measurement": "Behavior of gene caused by administration of chemical substance, Gene No. 4973", "setting": "[1]; rat, in vivo", "result": "−"}, {"measurement": "Behavior of gene caused by administration of chemical substance, Gene No. 5600", "setting": "[1]; rat, in vivo", "result": "−"}, {"measurement": "Behavior of gene caused by administration of chemical substance, Gene No. 5634", "setting": "[1]; rat, in vivo", "result": "−"}, {"measurement": "Behavior of gene caused by administration of chemical substance, Gene No. 5726", "setting": "[1]; rat, in vivo", "result": "+"}, {"measurement": "Behavior of gene caused by administration of chemical substance, Gene No. 5878", "setting": "[1]; rat, in vivo", "result": "−"}, {"measurement": "Behavior of gene caused by administration of chemical substance, Gene No. 6026", "setting": "[1]; rat, in vivo", "result": "−"}, {"measurement": "Behavior of gene caused by administration of chemical substance, Gene No. 6182", "setting": "[1]; rat, in vivo", "result": "−"}, {"measurement": "Behavior of gene caused by administration of chemical substance, Gene No. 6303", "setting": "[1]; rat, in vivo", "result": "−"}, {"measurement": "Behavior of gene caused by administration of chemical substance, Gene No. 6620", "setting": "[1]; rat, in vivo", "result": "−"}, {"measurement": "Behavior of gene caused by administration of chemical substance, Gene No. 6742", "setting": "[1]; rat, in vivo", "result": "−"}]}]}
